Laboratory results taken from patent publication US20230339970A1, “CASEIN KINASE 1 DELTA MODULATORS” (priority 2020, published 2023).

Tests used:
[1] = biological target: T1, human recombinant GST cleaved CSNK1D (Homo sapiens, UniProt P48730); assay: Purified Enzyme Assay (ADP-Glo CSNK1D Kinase Assay); format: biochemical; conditions: 2 nM CSNK1D; peptide substrate 150 μM; ATP 20 μM; 45 minutes at room temperature
T1 construct: GST (cleaved yes); purchased University of Dundee clone DU 19064
Method: In this assay, CSNK1D phosphorylates a substrate peptide PLSRTL-pS-VASLPGL in the presence of ATP. […] This assay monitors CSNK1D kinase activity by measuring the amount of ADP produced in the assay.
The substrate mix is added to each well of a low volume, 384-well, white opaque plate. Test compounds were diluted in HBSS and added in a dose-response to the plate.
The total volume of each reaction is 5 ul (2 μL of substrate mix, 1 μL of diluted compounds, and 2 μL of human recombinant CSNK1D). The plates are incubated for 45 minutes at room temperature.
ADP was quantified using the ADP-Glo™ Kinase Assay. ADP-Glo Reagent (5 μL) was added to each well. After a 1 hour incubation at room temperature, Kinase Detection Reagent (10 μL) was added to each well and incubated for 30 minutes. […] The raw data from the Envision is used to calculate percent activity.

[2] = biological target: T2, human CSNK1D (Homo sapiens, UniProt P48730); assay: Whole Cell nBRET CSNK1D Binding Assay; conditions: living CHO cells stably expressing human CSNK1D tagged with nanoluciferase; NanoBret tracer 130 nM; 2 hours at 37 C
T2 construct: expressed in transfected cells
T2 sequence (P48730 whole entry): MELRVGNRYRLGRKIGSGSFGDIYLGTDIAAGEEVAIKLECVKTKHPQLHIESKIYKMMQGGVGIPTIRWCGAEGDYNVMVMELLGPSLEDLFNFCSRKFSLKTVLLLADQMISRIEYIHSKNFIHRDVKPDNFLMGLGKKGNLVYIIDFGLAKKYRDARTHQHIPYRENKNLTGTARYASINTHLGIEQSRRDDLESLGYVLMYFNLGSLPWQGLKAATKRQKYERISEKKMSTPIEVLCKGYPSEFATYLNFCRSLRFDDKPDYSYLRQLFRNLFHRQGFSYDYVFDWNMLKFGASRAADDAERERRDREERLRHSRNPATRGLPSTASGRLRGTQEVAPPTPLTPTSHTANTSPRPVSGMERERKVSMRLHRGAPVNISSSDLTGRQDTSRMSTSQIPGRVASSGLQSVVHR

T1 sequence (P48730 whole entry): as above

Compound | IC50 [1] | IC50 [2]
Fc1ccc(-c2nn3c(c2-c2ccnc4[nH]ncc24)CCC3)cc1 [Example 4, 4-(2-(4-Fluorophenyl)-5,6-dihydro-4H-pyrrolo[1,2-b]pyrazol-3-yl)-1H-pyrazolo[3,4-b]pyridine] | 1 nM | 22 nM
Fc1ccc(-c2nn3c(c2-c2ccnc4[nH]ncc24)C2CCC3CC2)cc1 [Example 64, 2-(4-Fluorophenyl)-3-(1H-pyrazolo[3,4-b]pyridin-4-yl)-4,5,6,7-tetrahydro-4,7-ethanopyrazolo[1,5-a]pyridine] | 1 nM | 12 nM
Fc1ccc(-c2nn3c(c2-c2ccnc4[nH]ncc24)CC2(CC2)C3)cc1 [Example 247, 2-(4-Fluorophenyl)-3-(1H-pyrazolo[3,4-b]pyridin-4-yl)spiro[4,6-dihydropyrrolo[1,2-b]pyrazole-5,1′-cyclopropane]] | 2 nM | 13 nM
Fc1ccc(-c2nn3c(c2-c2ccnc4[nH]ncc24)CO[C@@H](C(F)(F)F)C3)cc1 [Example 101, (R)-2-(4-Fluorophenyl)-3-(1H-pyrazolo[3,4-b]pyridin-4-yl)-6-(trifluoromethyl)-6,7-dihydro-4H-pyrazolo[5,1-c][1,4]oxazine] | 2 nM | 24 nM
FCC1Cn2nc(-c3ccc(F)cc3)c(-c3ccnc4[nH]ncc34)c2CO1 (single isomer, unassigned) [Example 105, (*R)-(Fluoromethyl)-2-(4-fluorophenyl)-3-(1H-pyrazolo[3,4-b]pyridin-4-yl)-6,7-dihydro-4H-pyrazolo[5,1-c][1,4]oxazine] | 4 nM | 46 nM
Fc1ccc(-c2nn3c(c2-c2ccnc4[nH]ncc24)COC(C(F)(F)F)C3)cc1 (centres unmarked) [Example 99, 2-(4-Fluorophenyl)-3-(1H-pyrazolo[3,4-b]pyridin-4-yl)-6-(trifluoromethyl)-6,7-dihydro-4H-pyrazolo[5,1-c][1,4]oxazine] | – | 54 nM
COc1ccc2nccc(-c3c(-c4ccc(F)cn4)nn4c3COC(C)(C)C4)c2n1 [Example 168, 2-(5-Fluoropyridin-2-yl)-3-(6-methoxy-1,5-naphthyridin-4-yl)-6,6-dimethyl-6,7-dihydro-4H-pyrazolo[5,1-c][1,4]oxazine] | 19 nM | 836 nM
Fc1ccc(-c2nn3c(c2-c2ccnc4[nH]ncc24)[C@H]2CC[C@@H]3C2)cc1 (single isomer, unassigned) [Example 61] | 5 nM | 21 nM
Fc1ccc(-c2nn3c(c2-c2ccnc4[nH]ncc24)CC(F)(F)CC3)cc1 [Example 46, 4-(5,5-Difluoro-2-(4-fluorophenyl)-4,5,6,7-tetrahydropyrazolo[1,5-a]pyridin-3-yl)-1H-pyrazolo[3,4-b]pyridine] | 8 nM | 82 nM
COc1ccc2nccc(-c3c(-c4ccc(F)cn4)nn4c3CC[C@@H]4C)c2n1 [Example 22, 8-[(6S)-2-(5-Fluoro-2-pyridyl)-6-methyl-5,6-dihydro-4H-pyrrolo[1,2-b]pyrazol-3-yl]-2-methoxy-1,5-naphthyridine] | 23 nM | 345 nM
CC1(C)Cc2c(-c3ccnc4[nH]ncc34)c(-c3ccc(F)cc3)nn2C1 [Example 231, 4-[2-(4-Fluorophenyl)-5,5-dimethyl-4,6-dihydropyrrolo[1,2-b]pyrazol-3-yl]-1H-pyrazolo[3,4-b]pyridine] | 1 nM | 4 nM
CC1(C)Cn2nc(-c3ccc(F)cn3)c(-c3ccncc3)c2CO1 [Example 128, 2-(5-Fluoropyridin-2-yl)-6,6-dimethyl-3-(pyridin-4-yl)-6,7-dihydro-4H-pyrazolo[5,1-c][1,4]oxazine] | 13 nM | 244 nM
C[C@H]1n2nc(-c3ccc(F)cc3)c(-c3ccnc4[nH]ncc34)c2COC1(C)C (single isomer, unassigned) [Example 172] | 5 nM | 54 nM
Fc1ccc(-c2nn3c(c2-c2ccnc4[nH]ncc24)[C@H]2CC[C@@H]3C2)nc1 (single isomer, unassigned) [Example 63, (4*S,7*R)-2-(5-Fluoropyridin-2-yl)-3-(1H-pyrazolo[3,4-b]pyridin-4-yl)-4,5,6,7-tetrahydro-4,7-methanopyrazolo[1,5-a]pyridine] | 12 nM | 320 nM
[2H]C([2H])([2H])C1(C([2H])([2H])[2H])Cc2c(-c3c(F)cnc4[nH]ncc34)c(-c3ccc(F)cn3)nn2C1 [Example 243, 5-Fluoro-4-[2-(5-fluoro-2-pyridyl)-5,5-bis(methyl-d3)-4,6-dihydropyrrolo[1,2-b]pyrazol-3-yl]-1H-pyrazolo[3,4-b]pyridine] | 3 nM | 49 nM
Fc1ccc(-c2nn3c(c2-c2ccnc4[nH]ncc24)CCC3)nc1 [Example 7, 4-[2-(5-Fluoro-2-pyridyl)-5,6-dihydro-4H-pyrrolo[1,2-b]pyrazol-3-yl]-1H-pyrazolo[3,4-b]pyridine] | 7 nM | 136 nM
CC[C@H]1Cn2nc(-c3ccc(F)cn3)c(-c3ccnc4[nH]ncc34)c2CO1 (single isomer, unassigned) [Example 96, (*S)-6-Ethyl-2-(5-fluoropyridin-2-yl)-3-(1H-pyrazolo[3,4-b]pyridin-4-yl)-6,7-dihydro-4H-pyrazolo[5,1-c][1,4]oxazine] | 32 nM | 2730 nM
FCC1Cn2nc(-c3ccc(F)cc3)c(-c3cnc4[nH]ncc4c3)c2CO1 (centres unmarked) [Example 103, 6-(Fluoromethyl)-2-(4-fluorophenyl)-3-(1H-pyrazolo[3,4-b]pyridin-5-yl)-6,7-dihydro-4H-pyrazolo[5,1-c][1,4]oxazine] | – | 15 nM

The next lines start with the values.

IC50 [1] | IC50 [2] | Compound
10 nM | 93 nM | CC1(C)Cn2nc(-c3ccc(F)cn3)c(-c3cc(N)n4nccc4c3)c2CO1 [Example 380, 5-[2-(5-Fluoro-2-pyridyl)-6,6-dimethyl-4,7-dihydropyrazolo[5,1-c][1,4]oxazin-3-yl]pyrazolo[1,5-a]pyridin-7-amine]
2 nM | 3 nM | Cc1cc(-c2c(-c3ccc(F)cc3)nn3c2C[C@@]2(C3)CC2(F)F)c2cn[nH]c2n1 (single isomer, unassigned) [Example 252, (*S)-1′,1′-Difluoro-2-(4-fluorophenyl)-3-(6-methyl-1H-pyrazolo[3,4-b]pyridin-4-yl)spiro[4,6-dihydropyrrolo[1,2-b]pyrazole-5,2′-cyclopropane]]
3 nM | 29 nM | [2H]C([2H])([2H])C1(C([2H])([2H])[2H])Cn2nc(-c3ccc(F)cn3)c(-c3ccnc4[nH]nc(F)c34)c2CO1 [Example 398, 3-(3-Fluoro-1H-pyrazolo[3,4-b]pyridin-4-yl)-2-(5-fluoropyridin-2-yl)-6,6-bis(methyl-d3)-6,7-dihydro-4H-pyrazolo[5,1-c][1,4]oxazine]
184 nM | 4340 nM | CC1CCOc2c(-c3ccn4nccc4c3)c(-c3ccc(F)cn3)nn21 (centres unmarked) [Example 446, 2-(5-Fluoropyridin-2-yl)-7-methyl-3-(pyrazolo[1,5-a]pyridin-5-yl)-6,7-dihydro-5H-pyrazolo[5,1-b][1,3]oxazine]
50 nM | 1570 nM | CC1(C)Cn2nc(-c3ccc(F)cn3)c(-c3ccn4ncnc4c3)c2CO1 [Example 385, 3-([1,2,4]Triazolo[1,5-a]pyridin-7-yl)-2-(5-fluoropyridin-2-yl)-6,6-dimethyl-6,7-dihydro-4H-pyrazolo[5,1-c][1,4]oxazine]
5 nM | 15 nM | Cc1cc(-c2c(-c3ccc(F)cn3)nn3c2C[C@@]2(C3)CC2(F)F)c2c(Cl)n[nH]c2n1 (single isomer, unassigned) [Example 262, (*S)-3′-(3-Chloro-6-methyl-1H-pyrazolo[3,4-b]pyridin-4-yl)-2,2-difluoro-2′-(5-fluoropyridin-2-yl)-4′H,6′H-spiro[cyclopropane-1,5′-pyrrolo[1,2-b]pyrazole]]
9 nM | 137 nM | [2H]C([2H])([2H])C1(C([2H])([2H])[2H])Cn2nc(-c3ccc(F)cn3)c(-c3c(F)cnc4[nH]nc(C)c34)c2CO1 [Example 404, 3-(5-Fluoro-3-methyl-1H-pyrazolo[3,4-b]pyridin-4-yl)-2-(5-fluoropyridin-2-yl)-6,6-bis(methyl-d3)-6,7-dihydro-4H-pyrazolo[5,1-c][1,4]oxazine]
197 nM | 10800 nM | Fc1ccc(-c2nn3c(c2-c2ccnc4[nH]nc(Cl)c24)CC2(C3)CC2(F)F)nc1 (single isomer, unassigned) [Example 257, (*R)-3-(3-Chloro-1H-pyrazolo[3,4-b]pyridin-4-yl)-1′,1′-difluoro-2-(5-fluoro-2-pyridyl)spiro[4,6-dihydropyrrolo[1,2-b]pyrazole-5,2′-cyclopropane]]
6 nM | 141 nM | CC1(C)Cn2nc(-c3ccc(F)cn3)c(-c3cc(C(F)F)nc4[nH]ncc34)c2CO1 [Example 390, 3-[6-(Difluoromethyl)-1H-pyrazolo[3,4-b]pyridin-4-yl]-2-(5-fluoro-2-pyridyl)-6,6-dimethyl-4,7-dihydropyrazolo[5,1-c][1,4]oxazine]
– | 37 nM | CC1(CC2COC2)CCc2c(-c3ccnc4[nH]ncc34)c(-c3ccc(F)cn3)nn2C1 (single isomer, unassigned) [Example 321, (*S)-4-(2-(5-Fluoropyridin-2-yl)-6-methyl-6-(oxetan-3-ylmethyl)-4,5,6,7-tetrahydropyrazolo[1,5-a]pyridin-3-yl)-1H-pyrazolo[3,4-b]pyridine]
